# Values joined by “and” are separate entries in the source; they are usually repeats but may differ in a detail not shown here. Equal values may be shown once. Records with an inconclusive call do not appear.
# Tested on: nude mice, LX-1 lung xenograft intrarenal, tumor weight T/C
# Assay: NCI In Vivo Anticancer Drug Screen. Data for tumor model Human Lung LX-1 Xenograft (intrarenal inoculation) in NU/NU Swiss (nude) mice
# Conditions: endpoint: mean tumor weight change, higher = larger tumour
# In short: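 Tumor-bearing mice receive test compound or vehicle; tumor size is then measured in each group. The treated value is divided by the vehicle value to give T/C.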
# [1] = dose: 300.0 mg/kg/injection, schedule: Q04DX003 (sc), vehicle: saline with Tween-80
# [2] = dose: 600.0 mg/kg/injection, schedule: Q04DX003 (sc), vehicle: saline with Tween-80
# [3] = dose: 1200.0 mg/kg/injection, schedule: Q04DX003 (sc), vehicle: saline with Tween-80
# [4] = dose: 2400.0 mg/kg/injection, schedule: Q04DX003 (sc), vehicle: saline with Tween-80
smiles,measurement,setting,value
ClCCCN1CCCCC1CCl (stereo not given),T/C,"dose: 12.5 mg/kg/injection, schedule: Q04DX003 (sc), vehicle: saline",88 % of control
same,T/C,"dose: 25.0 mg/kg/injection, schedule: Q04DX003 (sc), vehicle: saline",71 % of control
N=C(N)CCCCCCCCC(=N)N,T/C,"dose: 4.69 mg/kg/injection, schedule: Q04DX003 (sc), vehicle: saline",91 % of control
same,T/C,"dose: 9.38 mg/kg/injection, schedule: Q04DX003 (sc), vehicle: saline",92 % of control
same,T/C,"dose: 18.75 mg/kg/injection, schedule: Q04DX003 (sc), vehicle: saline",94 % of control
N/C(=N\O)c1cn(C2OC(CO)C(O)C2O)c2ncnc(N)c12 (stereo not given),T/C,"dose: 2.5 mg/kg/injection, schedule: Q04DX003 (sc), vehicle: Klucel (hydroxypropylcellulose) (HPC)",95 % of control
same,T/C,"dose: 5.0 mg/kg/injection, schedule: Q04DX003 (sc), vehicle: Klucel (hydroxypropylcellulose) (HPC)",99 % of control
same,T/C,"dose: 10.0 mg/kg/injection, schedule: Q04DX003 (sc), vehicle: Klucel (hydroxypropylcellulose) (HPC)",81 % of control
same,T/C,"dose: 20.0 mg/kg/injection, schedule: Q04DX003 (sc), vehicle: Klucel (hydroxypropylcellulose) (HPC)",44 % of control
O=C(O)C(CSC(c1ccccc1)(c1ccccc1)c1ccccc1)N=Cc1cccs1 (stereo not given),T/C,"dose: 100.0 mg/kg/injection, schedule: Q04DX003 (sc), vehicle: suspension in saline",86 % of control
same,T/C,"dose: 200.0 mg/kg/injection, schedule: Q04DX003 (sc), vehicle: suspension in saline",108 % of control
same,T/C,"dose: 400.0 mg/kg/injection, schedule: Q04DX003 (sc), vehicle: suspension in saline",55 % of control
O=C(NO)c1cc(O)c(O)c(O)c1,T/C,"dose: 200.0 mg/kg/injection, schedule: Q04DX003 (sc), vehicle: distilled water + Tween-80",66 % of control
same,T/C,"dose: 400.0 mg/kg/injection, schedule: Q04DX003 (sc), vehicle: distilled water + Tween-80",87 % of control
same,T/C,"dose: 800.0 mg/kg/injection, schedule: Q04DX003 (sc), vehicle: distilled water + Tween-80",100 % of control
same,T/C,"dose: 1600.0 mg/kg/injection, schedule: Q04DX003 (sc), vehicle: distilled water + Tween-80",90 % of control
O=C(NC1CCCCC1)OCc1c(COC(=O)NC2CCCCC2)c(-c2ccc(Cl)c(Cl)c2)n2c1CCC2,T/C,[1],88 % of control
same,T/C,[2],94 % of control
same,T/C,[3],104 % of control
same,T/C,[4],104 % of control
O=C1C2(Cl)C3(Cl)C4(Cl)C(Cl)(Cl)C5(Cl)[C@]3(Cl)C1(Cl)[C@]5(Cl)C24Cl (stereo not given in full),T/C,"dose: 37.5 mg/kg/injection, schedule: Q04DX003 (sc), vehicle: Klucel (hydroxypropylcellulose) (HPC)",118 % of control
same,T/C,"dose: 75.0 mg/kg/injection, schedule: Q04DX003 (sc), vehicle: Klucel (hydroxypropylcellulose) (HPC)",95 % of control
same,T/C,"dose: 150.0 mg/kg/injection, schedule: Q04DX003 (sc), vehicle: Klucel (hydroxypropylcellulose) (HPC)",78 % of control
COc1cc2cc3c4cc(OC)c(OC)cc4cc[n+]3c(C)c2cc1OC (tested in a mixture with another compound),T/C,"dose: 50.0 mg/kg/injection, schedule: Q01DX010 (sc), vehicle: saline",118 % of control
same,T/C,"dose: 100.0 mg/kg/injection, schedule: Q01DX010 (sc), vehicle: saline",46 % of control
Cc1ccc(C(=O)[O][Hg][CH2]C2COC([CH2][Hg][O]C(=O)c3ccc(C)cc3)CO2)cc1 (stereo not given),T/C,"dose: 25.0 mg/kg/injection, schedule: Q01DX010 (sc), vehicle: Klucel (hydroxypropylcellulose) (HPC)",89 % of control
same,T/C,"dose: 50.0 mg/kg/injection, schedule: Q01DX010 (sc), vehicle: Klucel (hydroxypropylcellulose) (HPC)",58 % of control
same,T/C,"dose: 100.0 mg/kg/injection, schedule: Q01DX010 (sc), vehicle: Klucel (hydroxypropylcellulose) (HPC)",112 % of control
same,T/C,"dose: 200.0 mg/kg/injection, schedule: Q01DX010 (sc), vehicle: Klucel (hydroxypropylcellulose) (HPC)",63 % of control
CCN(CC)CCNc1ccc(C)c2sc3ccc(O)cc3c(=O)c12,T/C,[1],71 % of control
same,T/C,[2],98 % of control
same,T/C,[3],83 % of control
same,T/C,[4],52 % of control
COc1cc2cc3cc4cc(OC)c(OC)cc4c(C)[n+]3cc2cc1OC (tested in a mixture with another compound),T/C,"dose: 300.0 mg/kg/injection, schedule: Q04DX003 (sc), vehicle: suspension in saline",105 % of control
same,T/C,"dose: 600.0 mg/kg/injection, schedule: Q04DX003 (sc), vehicle: suspension in saline",71 % of control
same,T/C,"dose: 1200.0 mg/kg/injection, schedule: Q04DX003 (sc), vehicle: suspension in saline",71 % of control
same,T/C,"dose: 2400.0 mg/kg/injection, schedule: Q04DX003 (sc), vehicle: suspension in saline",53 % of control
O=[n+]1c2ccccc2n([O-])c2ccccc21.[Cl][Ni][Cl],T/C,"dose: 18.75 mg/kg/injection, schedule: Q04DX003 (sc), vehicle: saline with Tween-80",122 % of control
same,T/C,"dose: 75.0 mg/kg/injection, schedule: Q04DX003 (sc), vehicle: saline with Tween-80",150 % of control and 163 % of control
same,T/C,"dose: 150.0 mg/kg/injection, schedule: Q04DX003 (sc), vehicle: saline with Tween-80",226 % of control
